According to PubChem BioAssay (NCI):
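48-hour exposure; five concentrations; linearly interpolated endpoints. Abbreviation: GI50, concentration required for 50% inhibition of growth. TGI: total growth inhibition.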

Assays:
Assay in all cases: NCI tumour cell line growth inhibition, 48 h
COLO 205 colon = tested on: COLO 205 colon
NCI-H522 lung = tested on: NCI-H522 lung
OVCAR-3 ovarian = tested on: OVCAR-3 ovarian
OVCAR-4 ovarian = tested on: OVCAR-4 ovarian
OVCAR-5 ovarian = tested on: OVCAR-5 ovarian
SF-268 CNS = tested on: SF-268 CNS
SK-MEL-5 melanoma = tested on: SK-MEL-5 melanoma
SNB-19 CNS = tested on: SNB-19 CNS
U251 CNS = tested on: U251 CNS
UO-31 renal = tested on: UO-31 renal

| Compound | GI50 (COLO 205 colon) | TGI (COLO 205 colon) | GI50 (NCI-H522 lung) | TGI (NCI-H522 lung) | GI50 (OVCAR-3 ovarian) | TGI (OVCAR-3 ovarian) | GI50 (OVCAR-4 ovarian) | TGI (OVCAR-4 ovarian) | GI50 (OVCAR-5 ovarian) | TGI (OVCAR-5 ovarian) | GI50 (SF-268 CNS) | TGI (SF-268 CNS) | GI50 (SK-MEL-5 melanoma) | TGI (SK-MEL-5 melanoma) | GI50 (SNB-19 CNS) | TGI (SNB-19 CNS) | GI50 (U251 CNS) | TGI (U251 CNS) | GI50 (UO-31 renal) | TGI (UO-31 renal) |
| --- | --- | --- | --- | --- | --- | --- | --- | --- | --- | --- | --- | --- | --- | --- | --- | --- | --- | --- | --- | --- |
| COc1ccc2c(c1)C(=O)c1c-2n(CCCN(C)C)c(=O)c2ccccc12 | 0.187 µM | 2.62 µM | 0.188 µM | 4.04 µM | 0.551 µM | 7.85 µM | 0.808 µM | 6.87 µM | 0.515 µM | 12.7 µM | 0.258 µM | 2.84 µM | 0.123 µM | 0.406 µM | 0.264 µM | 3.4 µM | 0.197 µM | 3.68 µM | 0.167 µM | 0.811 µM |
| O=C(O)c1cc(-c2ccc3cc4c(cc3c2)OCO4)nc2ccccc12 | – | > 100 µM | – | > 100 µM | – | > 100 µM | – | > 100 µM | – | > 100 µM | – | > 100 µM | – | > 100 µM | – | > 100 µM | – | > 100 µM | – | 28.1 µM |
| CNC(=O)c1c(C)oc2cc(Oc3ncnc4cc(OC)c(OC)cc34)ccc12 | > 100 µM | > 100 µM | > 100 µM | > 100 µM | > 100 µM | > 100 µM | > 100 µM | > 100 µM | > 100 µM | > 100 µM | > 100 µM | > 100 µM | > 100 µM | > 100 µM | > 100 µM | > 100 µM | 5.51 µM | > 100 µM | – | – |
| CC(=O)Nc1ccc(/C=C/C(=O)c2sc(-c3cccnc3)nc2C)cc1 | – | > 100 µM | – | > 100 µM | – | > 100 µM | – | – | – | > 100 µM | – | > 100 µM | – | > 100 µM | – | – | – | > 100 µM | – | > 100 µM |
| O=C1C=C(Nc2ccc(Cl)cc2Cl)c2ccccc2C1=O | – | > 100 µM | – | > 100 µM | – | > 100 µM | – | > 100 µM | – | > 100 µM | – | > 100 µM | – | – | – | > 100 µM | – | > 100 µM | – | > 100 µM |
| O=C(O)CCNCC(=O)O | – | > 100 µM | – | > 100 µM | – | > 100 µM | – | – | – | > 100 µM | – | > 100 µM | – | > 100 µM | – | > 100 µM | – | > 100 µM | – | > 100 µM |
| CCOC(=O)c1cc(C(=O)c2ccc(OC)cc2)n2ccc(/C=C/c3cc[n+](CC(=O)c4ccc(OC)cc4)cc3)cc12 | – | – | – | – | 1.52 µM | 3 µM | 1.26 µM | 2.94 µM | – | – | 2.09 µM | 4.52 µM | – | – | 1.73 µM | 4.06 µM | 1.68 µM | 4.57 µM | > 100 µM | > 100 µM |
| COc1ccc(C(=O)C(CN(C)C)CN(C)C)cc1 | 1.11 µM | 2.32 µM | – | – | 1.29 µM | 2.57 µM | – | – | 12.6 µM | 30.8 µM | 13.7 µM | 42.3 µM | 15.3 µM | 29 µM | 16.3 µM | 33.1 µM | 14.2 µM | 34.1 µM | 1.37 µM | 2.91 µM |
| Cc1nn(CNc2ccccc2C(F)(F)F)c(=S)n1/N=C/c1cccc2cccnc12 | > 100 µM | > 100 µM | > 100 µM | > 100 µM | > 100 µM | > 100 µM | 44.3 µM | > 100 µM | > 100 µM | > 100 µM | 32.5 µM | > 100 µM | > 100 µM | > 100 µM | > 100 µM | > 100 µM | – | – | > 100 µM | > 100 µM |
| N#C/C(=C\c1cc(O)cc(O)c1)C(N)=O | – | > 100 µM | – | 66.2 µM | – | > 100 µM | – | > 100 µM | – | > 100 µM | – | > 100 µM | – | – | – | > 100 µM | – | > 100 µM | – | > 100 µM |
| OCC1C(OCc2ccccc2)C(OCc2ccccc2)C(OCc2ccccc2)CN1Cc1ccccc1 (stereo not given) | – | 28.4 µM | – | > 100 µM | – | > 100 µM | – | > 100 µM | – | > 100 µM | – | > 100 µM | – | – | – | > 100 µM | – | > 100 µM | – | 37.3 µM |
| C/C(=N\N=C(N)N)C(CN1CCCCC1)C(c1ccccc1)c1c(O)c2ccccc2oc1=O (stereo not given) | – | > 100 µM | – | > 100 µM | – | > 100 µM | – | > 100 µM | – | > 100 µM | – | > 100 µM | – | – | – | > 100 µM | – | – | – | – |
| Cc1c(C)n(CCCN2CCN(C)CC2)c2ccc(Oc3cccc(C(=O)N4CCN(CCc5ccc(F)cc5)CC4)c3)cc12 | 1.97 µM | 3.8 µM | – | – | 1.82 µM | 3.39 µM | 1.84 µM | 3.92 µM | 1.58 µM | 3 µM | 1.79 µM | 3.78 µM | 1.71 µM | 3.08 µM | 1.75 µM | 3.31 µM | 1.66 µM | 3.28 µM | 1.23 µM | 2.52 µM |
| O=c1c2c(nc3n1CCS3)[nH]c1cc([N+](=O)[O-])ccc12 | 41.4 µM | > 100 µM | > 100 µM | > 100 µM | 25.5 µM | 81.2 µM | > 100 µM | > 100 µM | > 100 µM | > 100 µM | > 100 µM | > 100 µM | – | – | > 100 µM | > 100 µM | > 100 µM | > 100 µM | > 100 µM | > 100 µM |
| CC(C)(C)C1=CC(=C(P(=O)(O)O)P(=O)(O)O)C=C(C(C)(C)C)C1=O | – | – | – | > 50 µM | – | > 50 µM | – | > 50 µM | – | > 50 µM | – | > 50 µM | – | > 50 µM | – | > 50 µM | – | – | – | > 50 µM |
| CCOC(=O)Cc1c(C)c2cc(C(=O)c3ccccc3)c(O)cc2oc1=O | – | 37.2 µM | – | 68.7 µM | – | 53.8 µM | – | > 100 µM | – | > 100 µM | – | 84.9 µM | – | 40 µM | – | > 100 µM | – | 74.2 µM | – | – |
| COC1CCC(OS(C)(=O)=O)C(CO)O1 (stereo not given) | – | – | – | > 100 µM | – | > 100 µM | – | – | – | > 100 µM | – | – | – | – | – | – | – | > 100 µM | – | > 100 µM |
| NNC(=O)C(=O)N/N=C(\CCCC(=O)Nc1ccc(Cl)cc1)CC(=O)c1ccc(F)cc1 | – | > 100 µM | – | – | – | > 100 µM | – | > 100 µM | – | > 100 µM | – | > 100 µM | – | > 100 µM | – | > 100 µM | – | > 100 µM | – | > 100 µM |
| OC(CNc1ccnc2cc(Cl)ccc12)CNc1ccnc2cc(Cl)ccc12 | – | – | – | – | 1.81 µM | 3.42 µM | 1.64 µM | 3.34 µM | 1.73 µM | 3.42 µM | – | – | 1.58 µM | 3.02 µM | – | – | – | – | 17 µM | 38 µM |
| CC1(C)OC2C(CCP(=O)(O)O)OC(c3nc(C(N)=O)cs3)C2O1 (stereo not given) | – | > 100 µM | – | > 100 µM | – | – | – | > 100 µM | – | > 100 µM | – | > 100 µM | – | – | – | > 100 µM | – | > 100 µM | – | > 100 µM |
